Data as given in paper PMC11855827, “High-Throughput Screening of Five Compound Libraries for Anthelmintic Activity and Toxicity Leads to the Discovery of Two Flavonoid Compounds” (International Journal of Molecular Sciences, 2025).

Tested on: C. elegans
Conditions: Table S2, C. elegans SS assay, 110 μM, averages of 4 data points

| Compound | Percentage of motility inhibition 0 h | Percentage of motility inhibition 24 h |
| --- | --- | --- |
| O=c1cc(-c2ccc(O)c(O)c2)oc2cc(O[C@@H]3O[C@H](CO)[C@@H](O)[C@H](O)[C@H]3O)c(O)c(O)c12 [6‐Hydroxyluteolin 7‐glucoside] | 0% | 10% |
| CC(=O)CC[C@@H]1[C@H]2CC(=C(C)C)C(=O)C[C@@]12C [Curcumenone] | 3% | 0% |
| CC(C)=CCC[C@@](O)(CO[C@@H]1O[C@H](CO)[C@@H](O)[C@H](O)[C@H]1O)[C@H]1CC[C@]2(C)[C@@H]1CC[C@@H]1[C@@]3(C=O)CC[C@H](O[C@@H]4OC[C@H](O)[C@H](O[C@@H]5OC[C@@H](O)[C@H](O)[C@H]5O)[C@H]4O[C@@H]4O[C@@H](C)[C@H](O)[C@@H](O)[C@H]4O)C(C)(C)[C@@H]3CC[C@]12C [Gypenoside XLIX] | 3% | 6% |
| CC(=O)O[C@@H]1CC[C@]2(C)C3=C(CC[C@H]2C1(C)C)[C@]1(C)CC[C@H]([C@@H](CCC=C(C)C)C(=O)O)[C@@]1(C)CC3 [Tsugaric acid A] | 12% | 12% |
| CCCNC[C@]1(O)[C@H](C)O[C@@H](O[C@H]2[C@H](C)[C@@H](O[C@@H]3O[C@H](C)C[C@H](N(C)C)[C@H]3O)[C@](C)(O)C[C@@H](C)CN[C@H](C)[C@@H](O)[C@](C)(O)[C@@H](CC)OC(=O)[C@@H]2C)C[C@@]1(C)OC [Tulathromycin A] | 20% | 9% |
| CC(C)=CC/C=C(\C)[C@H]1CC[C@]2(C)[C@@H]1[C@H](O)C[C@@H]1[C@@]3(C)C[C@@H](O)[C@H](O[C@@H]4O[C@H](CO)[C@@H](O)[C@H](O)[C@H]4O[C@@H]4O[C@H](CO)[C@@H](O)[C@H](O)[C@H]4O)C(C)(C)[C@@H]3CC[C@]12C [Damulin A] | 5% | 0% |
| CC(=O)OC1CC2(O)C(OC(=O)c3ccccc3)C3C4(OC(C)=O)COC4CC(O)C3(C)C(O)C(OC(C)=O)C(=C1C)C2(C)C (centres unmarked) [9-Dihydro-13-acetylbaccatin III] | 0% | 8% |
| C=C1C[C@@]23CC[C@H]4[C@@](C)(CCC[C@@]4(C)C(=O)O)[C@@H]2CC[C@]1(O[C@@H]1O[C@H](CO)[C@@H](O)[C@H](O)[C@H]1O[C@@H]1O[C@H](CO)[C@@H](O)[C@H](O)[C@H]1O)C3 [Steviolbioside] | 10% | 5% |
| C[C@H](CC[C@@H](O[C@@H]1O[C@H](CO[C@@H]2O[C@H](CO)[C@@H](O)[C@H](O)[C@H]2O)[C@@H](O)[C@H](O)[C@H]1O[C@@H]1O[C@H](CO)[C@@H](O)[C@H](O)[C@H]1O)C(C)(C)O)[C@H]1CC[C@@]2(C)[C@@H]3CC=C4[C@@H](CC[C@H](O[C@@H]5O[C@H](CO[C@@H]6O[C@H](CO)[C@@H](O)[C@H](O)[C@H]6O)[C@@H](O)[C@H](O)[C@H]5O)C4(C)C)[C@]3(C)CC[C@]12C [11-Deoxymogroside V] | 0% | 10% |
| COc1ccc(-c2oc3c(CC=C(C)C)c(O[C@@H]4O[C@H](CO)[C@@H](O)[C@H](O)[C@H]4O)cc(O)c3c(=O)c2O[C@@H]2O[C@@H](C)[C@H](O)[C@@H](O)[C@H]2O[C@@H]2O[C@@H](C)[C@H](O)[C@@H](O)[C@H]2O)cc1 [Epmedin C] | 0% | 0% |
| CC1(C)CC[C@]2(C(=O)O[C@@H]3O[C@H](CO[C@@H]4O[C@H](CO)[C@@H](O)[C@H](O)[C@H]4O)[C@@H](O)[C@H](O)[C@H]3O)CC[C@]3(C)C(=CC[C@@H]4[C@@]5(C)CC[C@H](O[C@@H]6OC[C@H](O)[C@H](O)[C@H]6O)[C@@](C)(CO)[C@@H]5CC[C@]43C)[C@@H]2C1 [Asperosaponin VI] | 0% | 2% |
| CC1(C)C(=O)[C@]2(C)CCC1C2 (single isomer, unassigned; (-)) [(-)-Fenchone] | 26% | 22% |
| (+)‐Sparteine | 5% | 13% |
| CCC[C@@H]1C[C@@H](C(=O)N[C@@H]([C@H]2O[C@H](SC)[C@H](O)[C@@H](O)[C@H]2O)[C@H](C)Cl)N(C)C1.Cl [Clindamycin (hydrochloride)] | 28% | 3% |
| COc1cc2c(cc1O)C[C@@H]1NCCc3cc(OC)c(O)c-2c31 [Norisoboldine] | 0% | 0% |
| COc1ccc([C@@H]2CC(=O)c3c(O)cc(O[C@@H]4O[C@H](CO)[C@@H](O)[C@H](O)[C@H]4O)cc3O2)cc1 [Isosakuranin] | 1% | 2% |
| COc1cc(OC)c2c(=O)cc(-c3ccc(OC)c(OC)c3)oc2c1 [5,7,3',4'‐Tetramethoxyflavone] | 0% | 0% |
| C=C[C@]1(C)C[C@@H](OC(=O)CSCCN(CC)CC)[C@]2(C)[C@H](C)CC[C@]3(CCC(=O)[C@H]32)[C@@H](C)[C@@H]1O.O=C(O)/C=C/C(=O)O [Tiamulin (fumarate)] | 9% | 9% |
| O=c1cc(-c2ccccc2)oc2cc(O[C@@H]3O[C@H](CO[C@@H]4O[C@H](CO)[C@@H](O)[C@H](O)[C@H]4O)[C@@H](O)[C@H](O)[C@H]3O)c(O)c(O)c12 [Oroxin B] | 0% | 0% |
| C[C@H]1O[C@@H](O[C@H]2CC[C@@]3(C)[C@@H](CC[C@]4(C)[C@@H]3C=C[C@]35OC[C@@]6(CCC(C)(C)C[C@H]63)[C@H](O)C[C@]54C)[C@]2(C)CO)[C@H](O)[C@@H](O[C@@H]2O[C@H](CO)[C@@H](O)[C@H](O)[C@H]2O)[C@H]1O [Saikosaponin D] | 34% | 52% |

| Compound | Percentage of motility inhibition 0 h | Percentage of motility inhibition 24 h |
| --- | --- | --- |
| O=CN1C[C@@H]2C[C@H](C1)c1cccc(=O)n1C2 [N‐Formylcytisine] | 0% | 0% |
| CN1[C@@H](CC(=O)c2ccccc2)CCC[C@H]1CC(=O)c1ccccc1 [Lobelanine] | 0% | 5% |
| SN‐38 | 34% | 3% |
| Oc1cc(O)c2ccc(-c3ccc(O)c(O)c3)[o+]c2c1.[Cl-] [Luteolinidin (chloride)] | 29% | 8% |
| CC(C)C1=CC(=O)C(C)(C2C(O)CC3(C)C4CC=C5C(CCC(OC6OC(CO)C(O)C(O)C6OC6OC(C)C(O)C(O)C6O)C5(C)C)C4(C)C(=O)CC23C)O1 (centres unmarked) [Picfeltarraenin IB] | 0% | 34% |
| CC(=O)O[C@H](CC(=O)O)C[N+](C)(C)C.[Cl-] [Acetyl‐L‐carni tine (hydrochloride)] | 12% | 0% |
| C[C@@H]1CC[C@@]2(NC1)O[C@H]1C[C@H]3[C@@H]4CC=C5C[C@@H](O[C@@H]6O[C@H](CO)[C@@H](O[C@@H]7O[C@@H](C)[C@H](O)[C@@H](O)[C@H]7O)[C@H](O)[C@H]6O)CC[C@]5(C)[C@H]4CC[C@]3(C)[C@H]1[C@@H]2C [Khasianine] | 19% | 10% |
| C[C@@H]1O[C@@H](O[C@@H]2[C@@H](O)[C@H](O)[C@@H](CO)O[C@H]2c2c(O)cc(O)c3c(=O)cc(-c4ccc(O)cc4)oc23)[C@H](O)[C@H](O)[C@H]1O [Vitexin‐2"‐O‐rhamnoside] | 2% | 52% |
| Aprotinin | 4% | 9% |
| C=CC/C(=N\OS(=O)(=O)[O-])S[C@@H]1O[C@H](CO)[C@@H](O)[C@H](O)[C@H]1O.O.[K+] [Sinigrin (hydrate)] | 0% | 19% |
| CO[C@H]1c2cc(C(C)C)c(O)c(O)c2[C@@]23CCCC(C)(C)[C@@H]2[C@@H]1OC3=O [7-Methoxyrosmanol] | 12% | 18% |
| N.N.N.O=C(O)CC(O)(CC(=O)O)C(=O)O [Citric acid (triammonium)] | 8% | 0% |
| CCOC(=O)c1c(CSc2ccccc2)n(C)c2cc(Br)c(O)c(CN(C)C)c12.Cl [Arbidol (hydrochloride)] | 33% | 3% |
| CCNCc1nc2c(N)nc3ccccc3c2n1CC(C)(C)O.O=C(O)C(F)(F)F [Gardiquimod trifluoroacetate] | 33% | 0% |
| CCOC(=O)NCCCC(=O)NCCc1ccccc1 [Santacruzamate A] | 0% | 0% |
| C[C@@H]1O[C@@H](OC[C@H]2O[C@@H](Oc3c(-c4ccc(O)c(O)c4)oc4cc(O)cc(O)c4c3=O)[C@H](O)[C@@H](O)[C@@H]2O)[C@H](O)[C@H](O)[C@H]1O.O.O.O [Rutin (trihydrate)] | 2% | 9% |
| CC(=O)O[C@H]([C@@H](O)C[C@@H](C)C1=C2C[C@H](O)[C@H]3[C@@]4(C)CCC(=O)C(C)(C)[C@@H]4CC[C@]3(C)[C@@]2(C)CC1)C(C)(C)O [Alisol A 24-acetate] | 3% | 23% |
| C[C@@]1(C(=O)O)CC[C@]2(C)CC[C@]3(C)C4=CC(=O)c5c(cc(O)c(O)c5C=O)[C@]4(C)CC[C@@]3(C)[C@@H]2C1 [Demethylzeylasteral] | 0% | 36% |
| CO[C@@H]1[C@@H](OC(N)=O)[C@@H](O)[C@H](Oc2ccc3c([O-])c(NC(=O)c4ccc(O)c(CC=C(C)C)c4)c(=O)oc3c2C)OC1(C)C.[Na+] [Novobiocin (Sodium)] | 25% | 1% |
| CCCCC/C=C\C/C=C\CCCCCCCC(=O)NCc1ccccc1 [N‐Benzyllinoleamide] | 0% | 0% |
